Assay results taken from PubChem BioAssay (NCI).
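48-hour exposure; five concentrations; linearly interpolated endpoints. Abbreviation: GI50, concentration required for 50% inhibition of growth. Definition used: TGI = concentration required for complete inhibition of growth.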

Tests used:
Test in all cases: NCI tumour cell line growth inhibition, 48 h
ACHN renal = test system: ACHN renal
CAKI-1 renal = test system: CAKI-1 renal
CCRF-CEM leukemia = test system: CCRF-CEM leukemia
OVCAR-5 ovarian = test system: OVCAR-5 ovarian
SF-268 CNS = test system: SF-268 CNS
SF-295 CNS = test system: SF-295 CNS
SK-MEL-5 melanoma = test system: SK-MEL-5 melanoma
SN12C renal = test system: SN12C renal
SW-620 colon = test system: SW-620 colon
UACC-62 melanoma = test system: UACC-62 melanoma

SMILES | GI50 (ACHN renal) | TGI (ACHN renal) | GI50 (CAKI-1 renal) | TGI (CAKI-1 renal) | GI50 (CCRF-CEM leukemia) | TGI (CCRF-CEM leukemia) | GI50 (OVCAR-5 ovarian) | TGI (OVCAR-5 ovarian) | GI50 (SF-268 CNS) | TGI (SF-268 CNS) | GI50 (SF-295 CNS) | TGI (SF-295 CNS) | GI50 (SK-MEL-5 melanoma) | TGI (SK-MEL-5 melanoma) | GI50 (SN12C renal) | TGI (SN12C renal) | GI50 (SW-620 colon) | TGI (SW-620 colon) | GI50 (UACC-62 melanoma) | TGI (UACC-62 melanoma)
CN(C)Cc1c[nH]c2c(NCCN)c3c(c(NCCN)c12)C(=O)c1ccccc1C3=O | 2.12 µM | 9.04 µM | 20.8 µM | 41.7 µM | 1.06 µM | 8.93 µM | 5.68 µM | 25.1 µM | 3.65 µM | 14.7 µM | 2.49 µM | 8.45 µM | 3.86 µM | 9.14 µM | 0.372 µM | 1.88 µM | 2.35 µM | 7.87 µM | 1.44 µM | 4.18 µM
Cn1cc(-c2csc(-c3cn(C)c4ccccc34)n2)c2cnccc21 | 1.8 µM | 3.19 µM | 2.58 µM | 9.12 µM | 1.78 µM | 3.86 µM | 1.77 µM | 3.25 µM | 1.92 µM | 3.92 µM | 1.63 µM | 3.07 µM | 1.69 µM | 3.07 µM | 1.66 µM | 3.1 µM | 1.85 µM | 3.63 µM | 1.72 µM | 3.25 µM
c1ccc2nc3c(cc4ccccn43)nc2c1 | 60.2 µM | > 100 µM | 55.2 µM | > 100 µM | > 100 µM | > 100 µM | > 100 µM | > 100 µM | > 100 µM | > 100 µM | 49.8 µM | > 100 µM | 25.8 µM | > 100 µM | 70 µM | > 100 µM | > 100 µM | > 100 µM | 17.4 µM | > 100 µM
NC(=O)c1cccc(Nc2nccc(Nc3cccc(F)c3)n2)c1 | 8.83 µM | > 25 µM | 7.24 µM | > 25 µM | 8.54 µM | > 25 µM | 8.07 µM | > 25 µM | 11.7 µM | > 25 µM | 9.82 µM | > 25 µM | 4.9 µM | > 16.3 µM | 7.98 µM | > 25 µM | 7.11 µM | > 24 µM | 5.66 µM | 24.6 µM
NC(N)=NS(=O)(=O)c1ccc(NC(=O)c2cccc3c(Nc4ccc(S(N)(=O)=O)cc4)c4ccccc4nc23)cc1 | – | > 100 µM | – | > 100 µM | – | > 100 µM | – | > 100 µM | – | > 100 µM | – | > 100 µM | – | > 100 µM | – | > 100 µM | – | > 100 µM | – | > 100 µM
COc1ccccc1/C=C/C(=O)/C=C/c1ccccc1O | 1.36 µM | 2.66 µM | 1.79 µM | 5.53 µM | 0.2 µM | 0.544 µM | 2.16 µM | 4.39 µM | 1.34 µM | 6.13 µM | 1.99 µM | 5.23 µM | 1.46 µM | 2.78 µM | 1.66 µM | 5.65 µM | 0.392 µM | 1.47 µM | 1.16 µM | 2.55 µM
O=c1c(Cl)c(Cl)cnn1CCc1ccncc1 | – | 33.4 µM | – | 3.99 µM | – | 88.8 µM | – | 33.6 µM | – | 40.8 µM | – | 83 µM | – | 30.4 µM | – | 33.6 µM | – | 41.2 µM | – | 39.8 µM
